This is an account of results in PMC6770484, “Discovery of Orexant and Anorexant Agents with Indazole Scaffold Endowed with Peripheral Antiedema Activity” (Biomolecules, 2019).

Like-named read-outs stand apart in the source and are kept apart here.

Assay [1] has as its target T1, cannabinoid receptors (CB1), rat brain membranes (Rattus norvegicus, UniProt P20272).
T1 construct: Crude membrane fractions were prepared from the brain; from tissue; host or cells: Wistar rat whole brain, crude membrane fraction
The settings on record: displacement of [3H]WIN55212-2, rat brain membranes; cited from earlier work.

Assay [2] has as its target T2, CB1 receptor G protein activation, rat brain membranes (Rattus norvegicus, UniProt P20272).
T2 construct: Crude membrane fractions were prepared from the brain; from tissue; host or cells: Wistar rat whole brain, crude membrane fraction
The settings on record: cited from earlier work; for [35S]GTPγS Binding Emax: basal = 100%; for EC50: read-out: [35S]GTPγS Binding EC50.

In the next assay the test system is food intake. As to the kind of experiment: Feeding test (food intake). The assay is classed as in vivo, CD-1 male mice. To be noted: 10 mg/Kg i.p., fasted mice, 1-h test. The source says:
(§1) The international and national law and policies approved by Italian Ministry of Health were used to comply with all animal care and experimental procedures. Animal studies were advised in compliance with the ARRIVE guidelines and with the recommendations made by EU Directive 2010/63/EU for animal experiments and the Basel declaration including the 3Rs concept. CD-1 male mice (10–14 weeks of age, 25–30 g of weight) were bought from Charles River (Milan, Italy). Shortly after their arrival and for at least one week, they were kept in an animal care facility under controlled standard conditions of temperature (21 ± 1 °C), light (from 7:00 AM to 7:00 PM), and relative humidity (60 ± 10%). Access to drinking water and food was assured. All procedures were performed to decrease the number of animals used (n = 6 per group) and their distress.
The test was carried out as previously described. At 24 h before the start of a feeding test, all food was removed from the home cages of mice to be tested. The next day and at least 1 h before the feeding test began, the mice were transported to the laboratory. On test days, the animals were placed in the home cages for 30 min of drug assimilation, during which food was not available. Then compounds were intraperitoneally administered (10 mg/kg). Mice were transferred into transparent and individual plastic cages with thick white paper lining the bottom and access to a pre-measured amount of their regular lab chow (2 gr) for the 1-h test. At the end of 1 h, mice were repositioned into their home cage. The amount of food left in the trial cage, including crumbs, was measured, and the amount consumed was calculated. Feeding trials normally happened on Tuesdays and Fridays between 12:00 and 14:00 h.

Assay [3] deals with T1, cannabinoid receptors (CB1), rat brain membranes. The experiment in a line: [3H]WIN55212-2 radioligand competition binding assay. The protocol: (§2) Wistar rats were locally bred and handled according to the EU Directive 2010/63/EU and to the Regulations on Animal Protection (40/2013. (II. 14.) Korm. r.) of Hungary. Crude membrane fractions were prepared from the brain. Brains were quickly removed from the euthanized rats and directly put in an ice-cold 50 mM Tris–HCl buffer (pH 7.4). The collected tissue was then homogenized in 30 volumes (v/w) of an ice-cold buffer with a Braun Teflon-glass homogenizer at the highest rpm. The homogenate was centrifuged at 20,000× g for 25 min, and the resulting pellet was suspended in the same volume of a cold buffer followed by incubation at 37 °C for 30 min to remove endogenous ligands. Centrifugation was then repeated. The final pellets were taken up in five volumes of a 50 mM Tris–HCl (pH 7.4) buffer containing 0.32 M sucrose and stored at −80 °C. Prior to the experiment, aliquots were thawed and centrifuged at 20,000× g for 25 min and then they were resuspended in 50 mM Tris–HCl (pH 7.4), homogenized with a Douncer, followed by the determination of the protein concentration by the method of Bradford. The membrane suspensions were immediately used either in radioligand binding experiments or in [^35S]GTPγS functional assays.
Filtration was performed with a 24-well Brandel Cell Harvester (Gaithersburg, MD, USA). Filters were air-dried and immersed into Ultima Gold MV scintillation cocktail, and then radioactivity was measured with a TRI-CARB 2100TR liquid scintillation analyzer (Packard, Perkin Elmer, Waltham, MA, USA).

The target in assay [4] is T2, CB1 receptor G protein activation, rat brain membranes. The experiment in a line: Ligand stimulated [35S]GTPγS binding assay. The assay is classed as biochemical. The settings on record: for Emax: rat brain membranes, basal = 100%, mean ± S.E.M. As to the method:
as §2
Rat brain membranes (30 µg protein/tube), prepared as described above, were incubated with 0.05 nM of [^35S]GTPγS (PerkinElmer) and 10^−10–10^−5 M unlabeled ligands in the presence of 30 µM of GDP, 100 mM of NaCl, 3 mM of MgCl2 and 1 mM of EGTA in a 50 mM Tris–HCl buffer (pH 7.4) for 60 min at 30 °C. Basal [^35S]GTPγS binding was measured in the absence of ligands and set as 100%. Nonspecific binding was determined by the addition of 10 µM unlabeled GTPγS and subtracted from total binding. Incubation, filtration and radioactivity measurements of the samples were carried out as described above.
In [^35S]GTPγS binding studies, data were expressed as the percentage stimulation of the specific [^35S]GTPγS binding over the basal activity and are given as means ±S.E.M. Each experiment was performed in triplicate and analyzed with sigmoid dose–response curve fitting to obtain potency (EC50) and efficacy (Emax) values. All data and curves were analyzed by GraphPad Prism 5.0 (San Diego, CA, USA).

Assay [5] concerns zymosan-induced thermal hyperalgesia. The experiment in a line: Zymosan-induced hyperalgesia (plantar test). The settings on record: 100 μg/20 μL s.c., after 3 h. The assay is classed as in vivo, CD-1 male mice.
From the text: as §1, with “All procedures were performed to decrease the number of animals used (n = 6 per group) and their distress.” left out
The compounds (100 µg) were administered subcutaneously in a volume of 20 µL in the dorsal surface of mice hind paw; this was done 15 min before a subcutaneous injection (20 μL/paw) of zymosan A (2.5% w/v in saline) into the same paw before the measurement of hyperalgesia. The sensitivity to a noxious heat stimulus was measured by the plantar test (Ugo Basile, Italy), in order to evaluate thermal hyperalgesia after the zymosan-induced inflammation of the mouse hind paw. […] Furthermore, on the test day, the animals were acclimatized to the experimental room 1 h before paw withdrawal latency (PWL) was calculated. […]

Assay [6] deals with zymosan-induced paw edema. The experiment in a line: Edema induced by zymosan. The assay is classed as in vivo, CD-1 male mice. The settings on record: 100 μg/20 μL s.c., for 24 h.
From the text: as §1
In this test, 100 µg of the compounds were administered subcutaneously in a volume of 20 µL in the dorsal surface of mice hind paw; this was done 15 min before a subcutaneous injection (20 μL/paw) of zymosan A (2.5% w/v in saline) into the same paw. Then, paw edema was calculated as formerly described. […] Paw volume was quantified using a hydroplethysmometer modified for small volumes (Ugo Basile, Varese, Italy) three times before the injections and at 1, 2, 3, 4 and 24 h thereafter.

Assay [7] has as its system formalin-induced licking/biting. The experiment in a line: Formalin test. It counts as in vivo, CD-1 male mice. To be noted: 100 μg/20 μL s.c., mice.
From the text: as §1
Mice were located to adapt into the transparent cages individually (30 × 14 × 12 cm) for at least an hour before testing. They were injected with 20 μL of a 1% solution of formalin in saline. Then, the compounds were administered subcutaneously in the dorsal surface of the right hind paw of the mouse using a microsyringe with a 27-gauge needle for 15 min before. Compounds were prepared by freshly diluting saline containing 0.9% NaCl in the ratio DMSO:saline 1:3 (v/v). […] The total time the animal spent licking or biting its paw was calculated.

T1 sequence (P20272 whole entry): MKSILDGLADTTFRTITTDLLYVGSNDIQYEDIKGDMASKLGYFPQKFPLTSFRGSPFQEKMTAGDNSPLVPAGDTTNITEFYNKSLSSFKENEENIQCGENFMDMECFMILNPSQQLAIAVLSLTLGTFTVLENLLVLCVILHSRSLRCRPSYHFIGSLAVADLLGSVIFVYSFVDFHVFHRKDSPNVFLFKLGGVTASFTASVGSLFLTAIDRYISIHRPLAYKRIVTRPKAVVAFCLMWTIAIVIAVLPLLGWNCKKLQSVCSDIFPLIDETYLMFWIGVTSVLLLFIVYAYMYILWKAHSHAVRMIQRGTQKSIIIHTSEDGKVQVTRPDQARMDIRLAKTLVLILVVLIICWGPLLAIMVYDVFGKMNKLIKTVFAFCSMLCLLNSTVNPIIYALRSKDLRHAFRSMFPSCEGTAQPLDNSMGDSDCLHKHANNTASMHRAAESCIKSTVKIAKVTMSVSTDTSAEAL
T2 sequence (P20272 whole entry): as above

What is called Ki is the dissociation constant of the complex between target and ligand, obtained from inhibition or displacement. The term EC50 denotes the concentration needed to bring the measured effect to its halfway point. As for `CCCCCn1cc(C(=O)c2cccc3ccccc23)c2ccccc21` [JWH-018, reference compound], the Ki in assay [1] was 3.5 ± 1 nM. Also, in assay [2], the “[35S]GTPγS Binding Emax” value is reported as 163 ± 5.2% and the EC50 was 16 ± 3 nM.

Regarding `CC(C)(C)[C@H](NC(=O)c1nn(Cc2ccc(Cl)cc2Cl)c2ccccc12)C(=O)O` [LONI1, (S)-2-(1-(2,4-dichlorobenzyl)-1H-indazole-3-carboxamido)-3,3-dimethylbutanoic acid], in assay [2], the “[35S]GTPγS Binding Emax” value is recorded as 84 ± 6.6% and the EC50 is more than 1000 nM.

As to `COC(=O)[C@@H](NC(=O)c1nn(Cc2ccc(Cl)cc2Cl)c2ccccc12)C(C)(C)C` [LONI2, (S)-methyl-2-(1-(2,4-dichlorobenzyl)-1H-indazole-3-carboxamido)-3,3-dimethylbutanoate], the “effect on food intake” value in the assay on food intake was “reduce food intake”. In assay [2], the “[35S]GTPγS Binding Emax” value was 143 ± 5.7% and the EC50 was 8.4 nM.

With `CC(C)(C)[C@H](NC(=O)c1nn(Cc2ccc(Cl)cc2Cl)c2ccccc12)C(N)=O` [LONI3, (S)-N-(1-amino-3,3-dimethyl-1-oxobutan-2-yl)-1-(2,4-dichlorobenzyl)-1H-indazole-3-carboxamide], in assay [2], the “[35S]GTPγS Binding Emax” value is reported as 139 ± 4.5% and the concentration giving a half-maximal response (EC50) was 126 nM.

For `CC(C)[C@H](NC(=O)c1nn(Cc2ccc(Cl)cc2Cl)c2ccccc12)C(=O)O` [LONI4, (S)-2-(1-(2,4-dichlorobenzyl)-1H-indazole-3-carboxamido)-3-methylbutanoic acid], the “effect on food intake” value in the assay with food intake is listed as “reduce food intake”. In addition, in assay [2], the “[35S]GTPγS Binding Emax” value was 82 ± 10.6% and the EC50 is more than 1000 nM.

As usually defined, the Emax is the size of the effect at its maximum, as opposed to the concentration needed. Take `CNC(=O)[C@@H](NC(=O)c1nn(Cc2ccc(Cl)cc2Cl)c2ccccc12)C(C)C` [LONI10, (S)-1-(2,4-dichlorobenzyl)-N-(3-methyl-1-(methylamino)-1-oxobutan-2-yl)-1H-indazole-3-carboxamide]: the Ki in assay [3] amounted to 84 ± 3.4 nM. The compound further yielded an Emax in assay [4] of 100 ± 1.7%.

In the case of `CNC(=O)[C@@H](NC(=O)c1nn(Cc2ccc(Cl)cc2Cl)c2ccccc12)C(C)(C)C` [LONI11, (S)-1-(2,4-dichlorobenzyl)-N-(3,3-dimethyl-1-(methylamino)-1-oxobutan-2-yl)-1H-indazole-3-carboxamide], in assay [5], the “percent of paw latency (zymosan-induced hyperalgesia)” value is given as “about 50%”. Also, in assay [3], the inhibitory constant (Ki) is 11 ± 1.2 nM. In assay [6], the “percent of paw volume (zymosan-induced edema)” value is given as 100%. The “effect on food intake” value in the assay with food intake was “increased the food intake”. The “antinociceptive effect in formalin test” value in assay [7] is “slight antinociceptive effect”. In assay [4], this compound showed a 50% effective concentration (EC50) of 200 ± 13 nM and an Emax of 151 ± 3%. In addition, the “potency in GTP-binding protein stimulation relative to WIN55,212” value in assay [4] (compared with WIN55,212) is listed as “three-fold less potency”.

`CNC(=O)[C@H](CC(C)C)NC(=O)c1nn(Cc2ccc(Cl)cc2Cl)c2ccccc12` [LONI12, (S)-1-(2,4-dichlorobenzyl)-N-(4-methyl-1-(methylamino)-1-oxopentan-2-yl)-1H-indazole-3-carboxamide] had an inhibitory constant (Ki) in assay [3] of 320 ± 16 nM. In addition, the Emax in assay [4] was determined as 101 ± 1%.

On to `Cc1c(C(=O)NN2CCCCC2)nn(-c2ccc(Cl)cc2Cl)c1-c1ccc(Cl)cc1` [rimonabant, 5-(4-chlorophenyl)-1-(2,4-dichloro-phenyl)-4-methyl-N-(piperidin-1-yl)-1H-pyrazole-3-carboxamide, reference compound], for which the “effect on food intake” value in the assay with food intake is “reduce food intake”.
